A short description of data set [1]: Half life in human CEM/0 cell extracts incubated at 37 degC by RP-18-HPLC method. In kind it is ADME, CCRF-CEM.
For data set [2], the system named is Human immunodeficiency virus 2. Kind of data set: Antiviral activity against HIV2 ROD infected in human thymidine kinase deficient CEM/TK- cells assessed as reduction in virus-induced giant cell formation incubated for 4 to 5 days. Type of data set: functional, organism-based. The conditions noted are these: Human immunodeficiency virus 2, ISOLATE ROD.
The nature of data set [3]: Half life in pH 7.3 PBS incubated at 37 degC by RP-18-HPLC method. Type of data set: physicochemical.
Data set [4] in a line: Half life in pH 7.3 RPMI medium incubated at 37 degC by RP-18-HPLC method. Type of data set: physicochemical.
Data set [5] can be described thus: Half life in presence of pig liver esterase assessed as half life for DiPPro-NDP by RP-18-HPLC method. In kind it is ADME.
A short description of data set [6]: Half life in presence of pig liver esterase assessed as half life for hydrolysis R1 intermediate by RP-18-HPLC method. In kind it is ADME. The conditions noted are these: isolated protein.
Data set [7] in a line: Cytotoxicity against human CEM/0 cells assessed as reduction in cell proliferation incubated for 4 to 5 days. The conditions noted are these: CEM/0 cells.
For data set [8], the system named is Human immunodeficiency virus 1. Kind of data set: Antiviral activity against HIV1 3B infected in human CEM/0 cells assessed as reduction in virus-induced giant cell formation incubated for 4 to 5 days. Particulars: Human immunodeficiency virus 1, 3B, CCRF-CEM. Type of data set: functional, organism-based.
In data set [9] the test system is Human immunodeficiency virus 2. Kind of data set: Antiviral activity against HIV2 ROD infected in human CEM/0 cells assessed as reduction in virus-induced giant cell formation incubated for 4 to 5 days. Particulars: Human immunodeficiency virus 2, ISOLATE ROD, CCRF-CEM. In kind it is functional, organism-based.
Data set [10] in a line: Drug metabolism in human CEM/0 cell extracts assessed as increase in NDP/NMP ratio by HILIC-HPLC method. In kind it is ADME, cell-based. The conditions noted are these: ccrf-cem.
Data set [11] can be described thus: Drug metabolism in human CEM/0 cell extracts assessed as increase in NDP/NMP ratio after 10 hrs by HILIC-HPLC method. In kind it is ADME. The conditions noted are these: ccrf-cem.

As a reminder, the half-life is the time needed for the level to fall by half in the phase considered. Broadly, the EC50 is the concentration at which the effect is half-maximal. Usually CC50 stands for the concentration at which the toxic effect on the cells reaches its halfway point. As to `CCCCCCCCCC(=O)Oc1ccc(COP(=O)(OCc2ccc(OC(=O)CCCC)cc2)OP(=O)(O)OC[C@H]2O[C@@H](n3cc(C)c(=O)[nH]c3=O)C[C@@H]2N=[N+]=[N-])cc1.N` (stereo partly drawn), the half-life was 1 h in [1], 50 h in data set [3], 77 h in data set [4] and 16.2 s in data set [5]. Further, the EC50 in [2] stood at 10000 nM; in data set [8] it was 34 nM; in [9], 290 nM. Further, the t1/2 in data set [6] was determined as 0.317 h. For the same compound, the CC50 in [7] stood at 41000 nM.

In the case of `CCCCC(=O)Oc1ccc(COP(=O)(OCc2ccc(OC(=O)CCCC)cc2)OP(=O)(O)OC[C@H]2O[C@@H](n3cc(C)c(=O)[nH]c3=O)C[C@@H]2N=[N+]=[N-])cc1.N`, the Drug metabolism result in data set [10] is recorded as “metabolite_detected”. In addition, the EC50 was greater than 10000 nM in [2], 11 nM in data set [8] and 54 nM in data set [9]. For the same compound, the CC50 in [7] worked out at 60000 nM.

As to `CCCCCCCCCC(=O)Oc1ccc(COP(=O)(OCc2ccc(OC(C)=O)cc2)OP(=O)(O)OC[C@H]2O[C@@H](n3cc(C)c(=O)[nH]c3=O)C[C@@H]2N=[N+]=[N-])cc1.N` (stereo partly drawn), the half-life in data set [1] was 0.04 h; in data set [3], 35 h; in data set [4] it was 19 h; in [5] it was 27 s. In addition, the Drug metabolism entry in data set [11] is listed as “metabolite_detected”. Further, the results for the EC50 in [2], in [8] and in [9] were greater than 10000 nM, 16 nM and 140 nM, respectively. For the same compound, the CC50 in data set [7] was 20000 nM.

For the compound `CCCCCCC(=O)Oc1ccc(COP(=O)(OCc2ccc(OC(=O)CCCCCC)cc2)OP(=O)(O)OC[C@H]2O[C@@H](n3cc(C)c(=O)[nH]c3=O)C[C@@H]2N=[N+]=[N-])cc1.N`, the Drug metabolism result in data set [10] is on record as “metabolite_detected”. Further, the EC50 in [2] was greater than 10000 nM; in [8], 16 nM; in data set [9], 58 nM. Besides, the CC50 in data set [7] came to 47000 nM.

Source of the values: ChEMBL document CHEMBL3596094, “Nucleoside Diphosphate Prodrugs: Nonsymmetric DiPPro-Nucleotides” (J Med Chem, 2015).
